In paper PMC6934184, “Selective DNA-PKcs inhibition extends the therapeutic index of localized radiotherapy and chemotherapy” (The Journal of Clinical Investigation, 2019):

Target: T1, MAPKAPK5 (PRAK) (Homo sapiens, UniProt Q8IW41)
T1 construct: purchased Thermo Fisher Scientific (Life Technologies) SelectScreen
Assay: SelectScreen Z'LYTE
Assay type: biochemical
How it was run: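 Percent values come from Thermo SelectScreen profiling of NU5455, combining activity and binding assays. CSF1R was run in Z'LYTE format at Km app ATP, and CAMK1 in Adapta format with ATP listed at 10.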

T1 sequence (Q8IW41 whole entry): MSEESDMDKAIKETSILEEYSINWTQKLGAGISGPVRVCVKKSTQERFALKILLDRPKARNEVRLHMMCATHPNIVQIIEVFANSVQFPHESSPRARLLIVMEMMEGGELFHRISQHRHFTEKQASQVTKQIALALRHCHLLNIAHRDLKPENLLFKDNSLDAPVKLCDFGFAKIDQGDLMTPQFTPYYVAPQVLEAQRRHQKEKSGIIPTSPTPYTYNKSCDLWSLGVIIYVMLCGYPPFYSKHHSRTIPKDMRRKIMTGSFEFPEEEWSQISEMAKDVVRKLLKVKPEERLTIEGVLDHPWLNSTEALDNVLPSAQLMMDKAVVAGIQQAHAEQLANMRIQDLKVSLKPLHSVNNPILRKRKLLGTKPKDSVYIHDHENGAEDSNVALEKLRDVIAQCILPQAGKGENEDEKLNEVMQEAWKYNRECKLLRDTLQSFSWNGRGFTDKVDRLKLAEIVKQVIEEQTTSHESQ

## CN(C(=O)CN1CCOCC1)c1ccc2sc3c(-c4cccc5c(=O)cc(N6CC7CCC(C6)O7)oc45)cccc3c2c1 [NU5455]
  inhibition at 1 µM: 0.6%
